# From patent US9896435B2, “N-pyrrolidinyl,N′-pyrazolyl-urea, thiourea, guanidine and cyanoguanidine compounds as TrkA kinase inhibitors” (Array BioPharma Inc., priority 2012, dated 2018)
# Columns and labels:
# Test in all cases: KinaseProfiler off-target kinase profiling
# Type in all cases: biochemical
# Conditions in all cases: 10 μM, ATP near Km
# [1] = biological target: MAPKAP-K3 (Homo sapiens (Human), UniProt Q16644)
# Procedure, shortened: (§1)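 Single-concentration screen: 10 μM compound, ATP set close to the Km of each individual kinase. Output is percent of control averaged over duplicate wells.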
# [2] = test system: CK1_y
# Procedure, shortened: as §1
# [3] = biological target: IR (Homo sapiens (Human), UniProt P06213)
# Procedure, shortened: as §1
# [4] = biological target: PKCbetaI (Homo sapiens (Human), UniProt P05771)
# Procedure, shortened: as §1
# [5] = biological target: EphB2 (Homo sapiens (Human), UniProt P29323)
# Procedure, shortened: as §1
# [6] = biological target: EphA7 (Homo sapiens (Human), UniProt Q15375)
# Procedure, shortened: as §1
# [7] = biological target: PKCtheta (Homo sapiens (Human), UniProt Q04759)
# Procedure, shortened: as §1
# [8] = biological target: MKNK2 (Homo sapiens (Human), UniProt Q9HBH9)
# Procedure, shortened: as §1
# [9] = biological target: Rsk1 (Homo sapiens (Human), UniProt Q15418)
# Procedure, shortened: as §1
# [10] = biological target: SRC (Homo sapiens (Human), UniProt P12931)
# Procedure, shortened: as §1
# [11] = biological target: TBK1 (Homo sapiens (Human), UniProt Q9UHD2)
# Procedure, shortened: as §1
# [12] = biological target: NEK2 (Homo sapiens (Human), UniProt P51955)
# Procedure, shortened: as §1
# [13] = biological target: BTK (Homo sapiens (Human), UniProt Q06187)
# Procedure, shortened: as §1
# [14] = biological target: c-RAF (Homo sapiens (Human), UniProt P04049, Y340D/Y341D)
# Procedure, shortened: as §1
# [15] = biological target: PKCbetaII (Homo sapiens (Human), UniProt P05771)
# Procedure, shortened: as §1
# [16] = biological target: PDK1 (Homo sapiens (Human), UniProt O15530)
# Procedure, shortened: as §1
# [17] = biological target: SGK1 (Homo sapiens (Human), UniProt O00141)
# Procedure, shortened: as §1
# [18] = biological target: DYRK2 (Homo sapiens (Human), UniProt Q92630)
# Procedure, shortened: as §1
# [19] = biological target: TSSK1 (Homo sapiens (Human), UniProt Q9BXA7)
# Procedure, shortened: as §1
# [20] = biological target: CAMK4 (Homo sapiens (Human), UniProt Q16566)
# Procedure, shortened: as §1
# [21] = biological target: mTOR/FKBP12 (Homo sapiens (Human), UniProt P42345)
# Procedure, shortened: as §1
# [22] = biological target: p38gamma (Homo sapiens (Human), UniProt P53778)
# Procedure, shortened: as §1
# [23] = biological target: EphB3 (Homo sapiens (Human), UniProt P54753)
# Procedure, shortened: as §1
# [24] = biological target: EphA3 (Homo sapiens (Human), UniProt P29320)
# Procedure, shortened: as §1
# [25] = biological target: TLK2 (Homo sapiens (Human), UniProt Q86UE8)
# Procedure, shortened: as §1
# [26] = biological target: Abl-P (Homo sapiens (Human), UniProt P00519)
# Procedure, shortened: as §1
# [27] = biological target: PKCzeta (Homo sapiens (Human), UniProt Q05513)
# Procedure, shortened: as §1
# [28] = biological target: CAMK2g (Homo sapiens (Human), UniProt Q13555)
# Procedure, shortened: as §1
# [29] = biological target: Fyn (Homo sapiens (Human), UniProt P06241)
# Procedure, shortened: as §1
# [30] = biological target: Txk (Homo sapiens (Human), UniProt P42681)
# Procedure, shortened: as §1
# [31] = biological target: MST2 (Homo sapiens (Human), UniProt Q13188)
# Procedure, shortened: as §1
# [32] = biological target: EphB4 (Homo sapiens (Human), UniProt P54760)
# Procedure, shortened: as §1
# [33] = biological target: Syk (Homo sapiens (Human), UniProt P43405)
# Procedure, shortened: as §1
# [34] = biological target: TAO3 (Homo sapiens (Human), UniProt Q9H2K8)
# Procedure, shortened: as §1
# [35] = biological target: PKCalpha (Homo sapiens (Human), UniProt P17252)
# Procedure, shortened: as §1
# [36] = biological target: AURKA (Homo sapiens (Human), UniProt O14965)
# Procedure, shortened: as §1
# [37] = biological target: NEK11 (Homo sapiens (Human), UniProt Q8NG66)
# Procedure, shortened: as §1
# [38] = biological target: NEK6 (Homo sapiens (Human), UniProt Q9HC98)
# Procedure, shortened: as §1
# [39] = biological target: AKT2 (Homo sapiens (Human), UniProt P31751)
# Procedure, shortened: as §1
# [40] = biological target: Haspin (Homo sapiens (Human), UniProt Q8TF76)
# Procedure, shortened: as §1
# Chain of PKCtheta (Q04759 whole entry): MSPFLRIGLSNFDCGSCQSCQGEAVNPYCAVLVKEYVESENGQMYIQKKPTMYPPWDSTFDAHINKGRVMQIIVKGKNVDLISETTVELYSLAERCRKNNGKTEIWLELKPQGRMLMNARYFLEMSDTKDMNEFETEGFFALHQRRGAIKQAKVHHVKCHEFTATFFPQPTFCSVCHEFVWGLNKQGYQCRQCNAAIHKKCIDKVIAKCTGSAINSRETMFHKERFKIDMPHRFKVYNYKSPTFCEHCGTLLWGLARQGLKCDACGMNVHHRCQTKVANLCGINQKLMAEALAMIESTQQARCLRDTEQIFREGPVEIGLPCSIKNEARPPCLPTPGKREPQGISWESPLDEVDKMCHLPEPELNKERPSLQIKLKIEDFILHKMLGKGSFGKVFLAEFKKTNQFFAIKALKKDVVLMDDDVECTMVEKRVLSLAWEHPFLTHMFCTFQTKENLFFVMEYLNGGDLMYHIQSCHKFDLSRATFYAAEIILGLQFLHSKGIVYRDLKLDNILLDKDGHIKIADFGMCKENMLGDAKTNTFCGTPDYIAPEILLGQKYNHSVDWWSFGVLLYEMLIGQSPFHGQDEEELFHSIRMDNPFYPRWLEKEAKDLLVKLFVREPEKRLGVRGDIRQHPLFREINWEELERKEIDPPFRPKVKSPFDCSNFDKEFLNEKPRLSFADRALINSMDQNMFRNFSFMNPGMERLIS
# Chain of CAMK2g (Q13555 whole entry): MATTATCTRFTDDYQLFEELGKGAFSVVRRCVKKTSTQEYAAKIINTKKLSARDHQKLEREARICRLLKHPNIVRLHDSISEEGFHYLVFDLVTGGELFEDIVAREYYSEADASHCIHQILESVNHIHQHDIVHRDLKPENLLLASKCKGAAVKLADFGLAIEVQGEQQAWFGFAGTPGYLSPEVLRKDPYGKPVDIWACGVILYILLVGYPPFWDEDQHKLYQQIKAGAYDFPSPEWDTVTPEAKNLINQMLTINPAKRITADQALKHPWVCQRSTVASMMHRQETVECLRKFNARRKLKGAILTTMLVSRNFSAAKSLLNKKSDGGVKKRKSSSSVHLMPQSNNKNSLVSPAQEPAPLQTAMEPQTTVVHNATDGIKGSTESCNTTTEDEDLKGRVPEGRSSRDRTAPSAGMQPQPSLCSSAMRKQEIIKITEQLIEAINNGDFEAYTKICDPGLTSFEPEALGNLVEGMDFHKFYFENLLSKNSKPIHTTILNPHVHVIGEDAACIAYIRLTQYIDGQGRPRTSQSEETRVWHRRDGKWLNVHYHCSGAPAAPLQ
# Chain of EphB4 (P54760 16-987): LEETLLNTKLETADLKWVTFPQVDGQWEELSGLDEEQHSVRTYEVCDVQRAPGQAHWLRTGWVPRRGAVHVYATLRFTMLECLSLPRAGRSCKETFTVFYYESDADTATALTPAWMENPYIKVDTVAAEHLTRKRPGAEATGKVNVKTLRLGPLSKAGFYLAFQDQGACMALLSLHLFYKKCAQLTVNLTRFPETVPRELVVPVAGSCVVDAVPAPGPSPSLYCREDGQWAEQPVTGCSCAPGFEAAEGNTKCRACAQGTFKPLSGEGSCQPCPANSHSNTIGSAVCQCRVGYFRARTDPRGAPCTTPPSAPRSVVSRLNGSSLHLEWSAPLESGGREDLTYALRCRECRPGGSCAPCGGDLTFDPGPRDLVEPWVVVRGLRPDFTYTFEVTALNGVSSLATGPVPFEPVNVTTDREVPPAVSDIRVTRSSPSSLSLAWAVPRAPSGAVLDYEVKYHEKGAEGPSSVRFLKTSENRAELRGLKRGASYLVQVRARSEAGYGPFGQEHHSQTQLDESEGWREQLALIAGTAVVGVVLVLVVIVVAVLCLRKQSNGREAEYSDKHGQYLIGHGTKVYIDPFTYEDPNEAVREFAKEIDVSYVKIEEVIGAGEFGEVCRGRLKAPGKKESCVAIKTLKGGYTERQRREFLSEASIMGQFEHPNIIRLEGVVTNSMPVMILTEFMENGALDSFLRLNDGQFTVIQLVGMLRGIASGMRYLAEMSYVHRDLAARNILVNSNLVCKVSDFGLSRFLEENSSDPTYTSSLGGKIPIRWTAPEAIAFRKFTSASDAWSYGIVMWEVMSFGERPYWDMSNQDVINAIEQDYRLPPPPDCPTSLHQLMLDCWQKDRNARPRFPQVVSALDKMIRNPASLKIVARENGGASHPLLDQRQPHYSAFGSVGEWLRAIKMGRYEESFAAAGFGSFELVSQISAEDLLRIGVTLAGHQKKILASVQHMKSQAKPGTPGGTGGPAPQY
# Chain of PKCbetaII (P05771 other isoform, or with tags, fused parts or gaps): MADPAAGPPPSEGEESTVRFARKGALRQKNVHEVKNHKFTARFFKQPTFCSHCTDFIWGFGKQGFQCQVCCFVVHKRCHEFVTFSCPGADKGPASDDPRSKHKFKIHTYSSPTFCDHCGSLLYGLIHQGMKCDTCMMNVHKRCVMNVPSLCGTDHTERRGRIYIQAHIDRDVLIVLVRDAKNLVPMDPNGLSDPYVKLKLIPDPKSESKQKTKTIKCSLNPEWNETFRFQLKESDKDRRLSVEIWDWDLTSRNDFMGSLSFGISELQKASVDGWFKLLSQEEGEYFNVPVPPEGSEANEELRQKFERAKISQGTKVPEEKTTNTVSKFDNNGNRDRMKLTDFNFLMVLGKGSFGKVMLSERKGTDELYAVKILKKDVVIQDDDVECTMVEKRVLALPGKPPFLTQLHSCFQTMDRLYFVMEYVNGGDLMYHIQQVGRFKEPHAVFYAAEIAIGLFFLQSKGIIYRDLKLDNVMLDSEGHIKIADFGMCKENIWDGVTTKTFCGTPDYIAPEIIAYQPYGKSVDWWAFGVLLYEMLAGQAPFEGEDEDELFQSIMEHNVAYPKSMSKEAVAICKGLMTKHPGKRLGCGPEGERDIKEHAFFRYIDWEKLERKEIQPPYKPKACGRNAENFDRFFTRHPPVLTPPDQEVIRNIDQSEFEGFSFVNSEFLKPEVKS
# Chain of IR (P06213 28-1382): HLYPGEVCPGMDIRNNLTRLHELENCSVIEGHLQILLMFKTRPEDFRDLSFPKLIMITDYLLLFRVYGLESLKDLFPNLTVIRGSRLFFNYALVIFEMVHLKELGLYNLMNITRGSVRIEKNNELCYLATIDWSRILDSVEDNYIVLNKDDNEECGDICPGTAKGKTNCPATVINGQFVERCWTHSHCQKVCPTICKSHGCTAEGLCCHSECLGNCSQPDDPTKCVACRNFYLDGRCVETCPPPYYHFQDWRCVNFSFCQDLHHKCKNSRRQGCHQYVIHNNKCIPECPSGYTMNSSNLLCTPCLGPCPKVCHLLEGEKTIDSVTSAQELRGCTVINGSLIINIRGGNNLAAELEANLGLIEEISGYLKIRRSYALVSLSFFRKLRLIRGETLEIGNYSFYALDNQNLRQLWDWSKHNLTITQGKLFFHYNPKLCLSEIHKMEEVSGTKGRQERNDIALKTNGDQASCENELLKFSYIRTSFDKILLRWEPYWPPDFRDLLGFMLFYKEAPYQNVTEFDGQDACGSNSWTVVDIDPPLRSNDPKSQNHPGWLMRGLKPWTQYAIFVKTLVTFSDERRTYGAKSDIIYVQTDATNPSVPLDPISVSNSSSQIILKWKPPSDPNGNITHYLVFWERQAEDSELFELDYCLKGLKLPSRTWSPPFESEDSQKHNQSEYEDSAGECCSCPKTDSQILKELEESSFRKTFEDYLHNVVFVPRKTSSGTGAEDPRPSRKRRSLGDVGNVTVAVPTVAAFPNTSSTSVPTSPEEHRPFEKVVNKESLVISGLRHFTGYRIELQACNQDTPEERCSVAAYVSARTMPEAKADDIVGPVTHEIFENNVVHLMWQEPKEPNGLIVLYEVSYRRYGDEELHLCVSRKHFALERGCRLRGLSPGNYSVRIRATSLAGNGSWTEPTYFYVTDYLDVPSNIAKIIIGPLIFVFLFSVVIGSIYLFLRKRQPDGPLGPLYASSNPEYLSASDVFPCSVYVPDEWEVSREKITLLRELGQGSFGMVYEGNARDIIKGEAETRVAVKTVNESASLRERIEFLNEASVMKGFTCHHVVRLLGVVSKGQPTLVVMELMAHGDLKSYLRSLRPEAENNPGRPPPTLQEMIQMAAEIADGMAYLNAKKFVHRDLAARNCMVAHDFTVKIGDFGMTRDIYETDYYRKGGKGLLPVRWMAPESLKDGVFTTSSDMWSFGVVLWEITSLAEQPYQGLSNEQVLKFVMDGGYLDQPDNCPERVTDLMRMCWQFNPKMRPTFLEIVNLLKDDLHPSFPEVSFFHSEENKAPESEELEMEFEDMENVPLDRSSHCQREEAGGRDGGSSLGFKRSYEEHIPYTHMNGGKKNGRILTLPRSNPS
# Chain of BTK (Q06187 whole entry): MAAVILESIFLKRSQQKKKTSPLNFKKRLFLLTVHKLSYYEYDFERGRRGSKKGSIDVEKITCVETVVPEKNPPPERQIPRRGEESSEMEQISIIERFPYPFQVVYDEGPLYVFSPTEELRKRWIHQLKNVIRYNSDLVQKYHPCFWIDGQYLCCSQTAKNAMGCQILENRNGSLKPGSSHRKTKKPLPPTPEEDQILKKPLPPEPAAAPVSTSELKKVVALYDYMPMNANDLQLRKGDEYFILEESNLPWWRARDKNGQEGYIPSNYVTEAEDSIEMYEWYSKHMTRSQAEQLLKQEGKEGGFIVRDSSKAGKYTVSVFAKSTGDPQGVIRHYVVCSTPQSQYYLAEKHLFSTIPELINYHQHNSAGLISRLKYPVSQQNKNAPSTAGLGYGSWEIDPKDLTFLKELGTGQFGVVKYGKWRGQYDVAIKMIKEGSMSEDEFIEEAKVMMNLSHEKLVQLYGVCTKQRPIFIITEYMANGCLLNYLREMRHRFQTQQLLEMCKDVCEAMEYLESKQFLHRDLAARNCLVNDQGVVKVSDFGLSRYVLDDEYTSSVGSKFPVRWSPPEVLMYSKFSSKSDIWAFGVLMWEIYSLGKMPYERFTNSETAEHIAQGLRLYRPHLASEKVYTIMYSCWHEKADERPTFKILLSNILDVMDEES
Compound,Avg POC [1],Avg POC [2],Avg POC [3],Avg POC [4],Avg POC [5],Avg POC [6],Avg POC [7],Avg POC [8],Avg POC [9],Avg POC [10],Avg POC [11],Avg POC [12],Avg POC [13],Avg POC [14],Avg POC [15],Avg POC [16],Avg POC [17],Avg POC [18],Avg POC [19],Avg POC [20],further results
"COCCN1C[C@@H](NC(=O)Nc2c(C)c(-c3ccnc(C)c3)nn2-c2ccccc2)[C@H](c2ccc(F)c(F)c2)C1 [Example 2, 1-((3S,4R)-4-(3,4-difluorophenyl)-1-(2-methoxyethyl)pyrrolidin-3-yl)-3-(4-methyl-3-(2-methylpyridin-4-yl)-1-phenyl-1H-pyrazol-5-yl)urea]",101.5 POC,103 POC,74.5 POC,95 POC,109.5 POC,101.5 POC,98.5 POC,101 POC,111 POC,105 POC,116.5 POC,96 POC,109 POC,103.5 POC,101.5 POC,94.5 POC,98.5 POC,90.5 POC,105 POC,97.5 POC,Avg POC [21]: 108.5 POC; Avg POC [22]: 92 POC; Avg POC [23]: 105.5 POC; Avg POC [24]: 101.5 POC; Avg POC [25]: 92.5 POC; Avg POC [26]: 113.5 POC; Avg POC [27]: 100 POC; Avg POC [28]: 89.5 POC; Avg POC [29]: 97 POC; Avg POC [30]: 99.5 POC; Avg POC [31]: 99.5 POC; Avg POC [32]: 104 POC; Avg POC [33]: 86 POC; Avg POC [34]: 97.5 POC; Avg POC [35]: 96 POC; Avg POC [36]: 116 POC; Avg POC [37]: 97 POC; Avg POC [38]: 105.5 POC; Avg POC [39]: 113 POC; Avg POC [40]: 71.5 POC
"COCCN1C[C@@H](NC(=O)Nc2c(C)c(-c3cnc(C)nc3)nn2-c2ccccc2)[C@H](c2cc(F)cc(F)c2)C1 [Example 14, 1-((3S,4R)-4-(3,5-difluorophenyl)-1-(2-methoxyethyl)pyrrolidin-3-yl)-3-(4-methyl-3-(2-methylpyrimidin-5-yl)-1-phenyl-1H-pyrazol-5-yl)urea]",105.5 POC,97.5 POC,84 POC,101 POC,120 POC,106.5 POC,98 POC,101 POC,111.5 POC,103.5 POC,103 POC,97.5 POC,97.5 POC,89 POC,92 POC,101.5 POC,99 POC,85 POC,104.5 POC,83.5 POC,Avg POC [21]: 113 POC; Avg POC [22]: 92.5 POC; Avg POC [23]: 138.5 POC; Avg POC [24]: 106.5 POC; Avg POC [25]: 93.5 POC; Avg POC [26]: 102.5 POC; Avg POC [27]: 99.5 POC; Avg POC [28]: 99 POC; Avg POC [29]: 91.5 POC; Avg POC [30]: 98.5 POC; Avg POC [31]: 101 POC; Avg POC [32]: 96 POC; Avg POC [33]: 88 POC; Avg POC [34]: 100.5 POC; Avg POC [35]: 93 POC; Avg POC [36]: 106 POC; Avg POC [37]: 91 POC; Avg POC [38]: 102 POC; Avg POC [39]: 119.5 POC; Avg POC [40]: 96 POC
